pIC50: −log10 of the molar value.
molecular target: Kv1.3 potassium channel (Homo sapiens, UniProt P22001); assay: Whole-cell patch-clamp assay for inhibitory activity against Kv1.3 (peak current); type: cell-based; details: HEK293 cells stably expressing Kv1.3, patch-clamp
Excerpt: The voltage stimulation protocol for recording whole-cell Kv1.X potassium currents via patch-clamp was as follows. After formation of a whole-cell seal, the cell membrane voltage was clamped at −80 mV, and then stepped to +40 mV for 500 ms. […] The test data were acquired by EPC-10 amplifier (HEKA) and stored in the PatchMaster (HEKA) software. Recording electrodes were drawn from capillary glass tubes using a microelectrode puller. Under an inverted microscope, the recording electrode was brought into contact with the cell surface by manipulating a microelectrode manipulator. Negative-pressure suction was applied to form a GΩ seal. After formation of the […], a rapid capacitance compensation was given. The application of negative pressure was continued to rupture the cell membrane, forming a whole-cell recording mode. Then, a slow capacitance compensation was given, and the membrane capacitance and series resistance were recorded. No current leakage compensation was provided. Once the whole-cell recorded Kv1.X current stabilized, drug administration was started. Each drug concentration was allowed to act for 5 min (or until the current reached a steady state) before the next concentration was tested. Multiple concentrations were tested for each test compound. The cover glass plated with the cells was placed in a recording bath of the inverted microscope. The test compound and the compound-free extracellular fluid were allowed to sequentially flow through the recording bath from low concentrations to high concentrations using a gravity perfusion method, thus acting on the cells, and liquid exchange was performed using a vacuum pump during recording. For each cell, the current detected in the compound-free extracellular liquid was used as its own control group. The test was independently repeated three times using at least three cells per concentration. All electrophysiological experiments were performed at room temperature. […] First, the peak current after the action of each drug concentration and the peak current of the blank control were standardized and then the inhibition rate corresponding to each drug concentration was calculated Subsequently, the mean, standard deviation (SD), and standard error (SE) were calculated for the inhibition rate corresponding to each concentration. Using the above equation, the IC50 value for each compound was calculated, and the dose-dependent effect was subjected to non-linear fitting, where IC50 is the half maximal inhibitory concentration. The IC50 calculation and the curve fitting were performed using the GraphPad Prism software.

Sequence of Kv1.3 potassium channel (P22001 whole entry): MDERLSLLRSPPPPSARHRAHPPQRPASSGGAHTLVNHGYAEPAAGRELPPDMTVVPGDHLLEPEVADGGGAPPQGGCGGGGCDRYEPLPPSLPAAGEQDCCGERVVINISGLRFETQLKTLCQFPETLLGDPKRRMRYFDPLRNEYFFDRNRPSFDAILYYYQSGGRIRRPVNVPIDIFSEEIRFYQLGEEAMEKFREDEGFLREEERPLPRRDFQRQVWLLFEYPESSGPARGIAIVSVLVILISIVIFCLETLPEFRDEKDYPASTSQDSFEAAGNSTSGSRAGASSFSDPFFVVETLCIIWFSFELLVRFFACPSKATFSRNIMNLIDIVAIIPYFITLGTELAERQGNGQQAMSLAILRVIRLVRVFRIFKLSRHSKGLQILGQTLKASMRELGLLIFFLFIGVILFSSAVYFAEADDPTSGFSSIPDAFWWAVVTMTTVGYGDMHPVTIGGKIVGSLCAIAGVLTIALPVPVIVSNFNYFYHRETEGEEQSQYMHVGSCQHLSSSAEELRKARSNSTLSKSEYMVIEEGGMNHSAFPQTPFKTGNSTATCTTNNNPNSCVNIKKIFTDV

Structure (SMILES)	pIC50
COC(=O)N1CCC(c2nnc3n2C[C@H](c2c(O)ccc(Cl)c2Cl)C3)C1 (single isomer, unassigned) [Example 50]	7.96
O=C1CC(c2nnc3n2C[C@H](c2c(O)ccc(Cl)c2Cl)C3)CN1 (single isomer, unassigned) [Example 53]	7.82
O=C1CC(c2nnc3n2C[C@H](c2c(O)ccc(Cl)c2Cl)C3)CCN1 (single isomer, unassigned) [Example 56]	7.69
O=C1CC(c2nnc3n2C[C@H](c2c(O)ccc(Cl)c2Cl)C3)CCN1 (single isomer, unassigned) [Example 57]	7.94
Oc1ccc(Cl)c(Cl)c1[C@@H]1Cc2nnc(C3CCCNC3)n2C1 (single isomer, unassigned) [Example 58]	7.92
CC1(c2nnc3n2C[C@H](c2c(O)ccc(Cl)c2Cl)C3)CCOC1 (single isomer, unassigned) [Example 64]	7.37
Oc1ccc(Cl)c(Cl)c1[C@@H]1Cc2nnc(C3CCCOC3)n2C1 (single isomer, unassigned) [Example 69]	7.28
Oc1ccc(Cl)c(Cl)c1C1Cc2nnc(C3CCN(C4CCCCC4)CC3)n2C1 (single isomer, unassigned) [Example 79]	7.83
CC(C)N1CCC(c2cnc3n2CC(c2c(O)ccc(Cl)c2Cl)C3)CC1 (single isomer, unassigned) [Example 94]	8.22
CCn1ncc2c1CC(c1c(O)ccc(Cl)c1Cl)C2 (single isomer, unassigned) [Example 118]	7.84
OCc1nnc2n1C[C@@H](c1c(O)ccc(Cl)c1Cl)C2 [Example 1, (R)-3,4-Dichloro-2-(3-(hydroxymethyl)-6,7-dihydro-5H-pyrrolo[2,1-c][1,2,4]triazol-6-yl)phenol]	7.03
CC(C)(C#N)c1nnc2n1CC(c1c(O)ccc(Cl)c1Cl)C2 (centres unmarked) [Example 4, 2-(6-(2,3-Dichloro-6-hydroxyphenyl)-6,7-dihydro-5H-pyrrolo[2,1-c][1,2,4]triazol-3-yl)-2-methylpropanenitrile]	7.34
Oc1ccc(Cl)c(Cl)c1C1Cc2nnc(C3CCCCC3)n2C1 (centres unmarked) [Example 5, 3,4-Dichloro-2-(3-cyclohexyl-6,7-dihydro-5H-pyrrolo[2,1-c][1,2,4]triazol-6-yl)phenol]	7.41
N#Cc1ccc(-c2nnc3n2CC(c2c(O)ccc(Cl)c2Cl)C3)cc1 (centres unmarked) [Example 6, 4-(6-(2,3-dichloro-6-hydroxyphenyl)-6,7-dihydro-5H-pyrrolo[2,1-c][1,2,4]triazol-3-yl)benzonitrile]	7.88
Oc1ccc(Cl)c(Cl)c1C1Cc2nnc(-c3ccc4[nH]ncc4c3)n2C1 (centres unmarked) [Example 7, 2-(3-(1H-Indazol-5-yl)-6,7-dihydro-5H-pyrrolo[2,1-c][1,2,4]triazol-6-yl)-3,4-dichlorophenol]	7.92
CC(C)c1nnc2n1CC(c1c(O)ccc(Cl)c1Cl)C2 (centres unmarked) [Example 8, 3,4-Dichloro-2-(3-isopropyl-6,7-dihydro-5H-pyrrolo[2,1-c][1,2,4]triazol-6-yl)phenol]	7.69

Structure (SMILES)	pIC50
N#Cc1cccc(-c2nnc3n2CC(c2c(O)ccc(Cl)c2Cl)C3)c1 (centres unmarked) [Example 9, 3-(6-(2,3-dichloro-6-hydroxyphenyl)-6,7-dihydro-5H-pyrrolo[2,1-c][1,2,4]triazol-3-yl)benzonitrile]	7.77
O=C(C1CC1)N1CCC(c2nnc3n2CC(c2c(O)ccc(Cl)c2Cl)C3)CC1 (centres unmarked) [Example 10, Cyclopropyl(4-(6-(2,3-dichloro-6-hydroxyphenyl)-6,7-dihydro-5H-pyrrolo[2,1-c][1,2,4]triazol-3-yl)piperidin-1-yl)methanone]	7.56
Oc1ccc(Cl)c(Cl)c1C1Cc2nnc(C3CCN(C4CC4)CC3)n2C1 (centres unmarked) [Example 11, 3,4-Dichloro-2-(3-(1-cyclopropylpiperidin-4-yl)-6,7-dihydro-5H-pyrrolo[2,1-c][1,2,4]triazol-6-yl)phenol]	8.03
O=C(c1nnc2n1CC(c1c(O)ccc(Cl)c1Cl)C2)N1CCC(O)C1 (centres unmarked) [Example 12, (6-(2,3-Dichloro-6-hydroxyphenyl)-6,7-dihydro-5H-pyrrolo[2,1-c][1,2,4]triazol-3-yl)(3-hydroxypyrrolidin-1-yl)methanone]	7.51
O=C(c1nnc2n1CC(c1c(O)ccc(Cl)c1Cl)C2)N1CCNCC1 (centres unmarked) [Example 13, (6-(2,3-Dichloro-6-hydroxyphenyl)-6,7-dihydro-5H-pyrrolo[2,1-c][1,2,4]triazol-3-yl)(piperazin-1-yl)methanone]	8.29
CC(C)N1CCN(C(=O)c2nnc3n2CC(c2c(O)ccc(Cl)c2Cl)C3)CC1 (centres unmarked) [Example 14, (6-(2,3-Dichloro-6-hydroxyphenyl)-6,7-dihydro-5H-pyrrolo[2,1-c][1,2,4]triazol-3-yl)(4-isopropylpiperazin-1-yl)methanone]	7.71
Oc1ccc(Cl)c(Cl)c1C1Cc2nnc(CC(F)(F)F)n2C1 (centres unmarked) [Example 15, 3,4-Dichloro-2-(3-(2,2,2-trifluoroethyl)-6,7-dihydro-5H-pyrrolo[2,1-c][1,2,4]triazol-6-yl)phenol]	7.57
CC(C)(C)c1nnc2n1CC(c1c(O)ccc(Cl)c1Cl)C2 (centres unmarked) [Example 16, 2-(3-(tert-Butyl)-6,7-dihydro-5H-pyrrolo[2,1-c][1,2,4]triazol-6-yl)-3,4-dichlorophenol]	7.13
CC(C)N1CCC(Cc2nnc3n2CC(c2c(O)ccc(Cl)c2Cl)C3)CC1 (centres unmarked) [Example 18, 3,4-Dichloro-2-(3-((1-isopropylpiperidin-4-yl)methyl)-6,7-dihydro-5H-pyrrolo[2,1-c][1,2,4]triazol-6-yl)phenol]	8.24
Oc1ccc(Cl)c(Cl)c1C1Cc2nnc(CN3CCC(O)C3)n2C1 (centres unmarked) [Example 19, 1-((6-(2,3-Dichloro-6-hydroxyphenyl)-6,7-dihydro-5H-pyrrolo[2,1-c][1,2,4]triazol-3-yl)methyl)pyrrolidin-3-ol]	7.33
Oc1ccc(Cl)c(Cl)c1C1Cc2nnc(CN3CCOCC3)n2C1 (centres unmarked) [Example 20, 3,4-Dichloro-2-(3-(morpholinomethyl)-6,7-dihydro-5H-pyrrolo[2,1-c][1,2,4]triazol-6-yl)phenol]	7.45
O=C(c1nnc2n1CC(c1c(O)ccc(Cl)c1Cl)C2)N1CCOCC1 (centres unmarked) [Example 21, (6-(2,3-Dichloro-6-hydroxyphenyl)-6,7-dihydro-5H-pyrrolo[2,1-c][1,2,4]triazol-3-yl)(morpholino)methanone]	7.31
Oc1ccc(Cl)c(Cl)c1C1Cc2nnc(C3CCN(C4CCOCC4)CC3)n2C1 (centres unmarked) [Example 22, 3,4-Dichloro-2-(3-(1-(tetrahydro-2H-pyran-4-yl)piperidin-4-yl)-6,7-dihydro-5H-pyrrolo[2,1-c][1,2,4]triazol-6-yl)phenol]	7.87
Oc1ccc(Cl)c(Cl)c1C1Cc2nnc(C(F)F)n2C1 (centres unmarked) [Example 25, 3,4-Dichloro-2-(3-(difluoromethyl)-6,7-dihydro-5H-pyrrolo[2,1-c][1,2,4]triazol-6-yl)phenol]	7.95
OCCc1nnc2n1C[C@H](c1c(O)ccc(Cl)c1Cl)C2 [Example 32, (S)-3,4-Dichloro-2-(3-(2-hydroxyethyl)-6,7-dihydro-5H-pyrrolo[2,1-c][1,2,4]triazol-6-yl)phenol]	7.89
Oc1ccc(Cl)c(Cl)c1[C@@H]1Cc2nnc(C3CCOCC3)n2C1 [Example 33, (S)-3,4-Dichloro-2-(3-(tetrahydro-2H-pyran-4-yl)-6,7-dihydro-5H-pyrrolo[2,1-c][1,2,4]triazol-6-yl)phenol]	7.32

Reference: patent US20260224536A1, “ARYL HETEROCYCLIC KV1.3 INHIBITOR, PREPARATION METHOD THEREFOR, AND USE THEREOF” (SHANGHAI SHENSHI WISE TECHNOLOGY CO., LTD., priority 2022, published 2026)
